#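 The concentration for 50% growth inhibition is given as GI50. TGI marks complete inhibition of growth.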
# What was measured:
# Assay in all cases: NCI tumour cell line growth inhibition, 384-well format
# ACHN renal = test system: ACHN renal
# NCI-H460 NSCLC = test system: NCI-H460 NSCLC
# COLO 205 colon = test system: COLO 205 colon
# EKVX NSCLC = test system: EKVX NSCLC
# HT29 colon = test system: HT29 colon
# SF-539 CNS = test system: SF-539 CNS
# SR leukemia = test system: SR leukemia
# UACC-62 melanoma = test system: UACC-62 melanoma
# MCF7 breast = test system: MCF7 breast
# SW-620 colon = test system: SW-620 colon
# SF-268 CNS = test system: SF-268 CNS
# TK-10 renal = test system: TK-10 renal
# NCI-H522 lung = test system: NCI-H522 lung
# 786-0 renal = test system: 786-0 renal
# SK-MEL-2 melanoma = test system: SK-MEL-2 melanoma
# HOP-62 NSCLC = test system: HOP-62 NSCLC
# MDA-MB-435 melanoma = test system: MDA-MB-435 melanoma
# SF-295 CNS = test system: SF-295 CNS
# SK-MEL-5 melanoma = test system: SK-MEL-5 melanoma
# M14 melanoma = test system: M14 melanoma
# KM12 colon = test system: KM12 colon
# OVCAR-4 ovarian = test system: OVCAR-4 ovarian
# SK-MEL-28 melanoma = test system: SK-MEL-28 melanoma
# IGROV1 ovarian = test system: IGROV1 ovarian
# CAKI-1 renal = test system: CAKI-1 renal
# RXF 393 renal = test system: RXF 393 renal
# UACC-257 melanoma = test system: UACC-257 melanoma
# NCI-H322M lung = test system: NCI-H322M lung
# K-562 leukemia = test system: K-562 leukemia
# HL-60(TB) leukemia = test system: HL-60(TB) leukemia
# PC-3 prostate = test system: PC-3 prostate
# MDA-MB-231 breast = test system: MDA-MB-231 breast
# NCI-H226 lung = test system: NCI-H226 lung
# MDA-MB-468 breast = test system: MDA-MB-468 breast
# UO-31 renal = test system: UO-31 renal
# SNB-75 CNS = test system: SNB-75 CNS
# HCT-15 colon = test system: HCT-15 colon
# T-47D breast = test system: T-47D breast
# SNB-19 CNS = test system: SNB-19 CNS
# A549 NSCLC = test system: A549 NSCLC
# OVCAR-3 ovarian = test system: OVCAR-3 ovarian
# SN12C renal = test system: SN12C renal
# MALME-3M melanoma = test system: MALME-3M melanoma
# DU-145 prostate = test system: DU-145 prostate
# BT-549 breast = test system: BT-549 breast
# A498 renal = test system: A498 renal
# OVCAR-8 ovarian = test system: OVCAR-8 ovarian
# NCI-H23 lung = test system: NCI-H23 lung
# OVCAR-5 ovarian = test system: OVCAR-5 ovarian
# HS 578T breast = test system: HS 578T breast
# MOLT-4 leukemia = test system: MOLT-4 leukemia
# HOP-92 NSCLC = test system: HOP-92 NSCLC
# SK-OV-3 ovarian = test system: SK-OV-3 ovarian
# U251 glioblastoma = test system: U251 glioblastoma
# HCT-116 colon = test system: HCT-116 colon
smiles,measurement,setting,value
Cc1nc(Nc2n[nH]c3c2CN(C(=O)N[C@H](CN(C)C)c2ccccc2)C3(C)C)c2sccc2n1,GI50,ACHN renal,35.6 nM
same,TGI,ACHN renal,3060 nM
same,GI50,NCI-H460 NSCLC,< 10 nM
same,TGI,NCI-H460 NSCLC,1300 nM
same,GI50,COLO 205 colon,< 10 nM
same,TGI,COLO 205 colon,193 nM
same,GI50,EKVX NSCLC,195 nM
same,TGI,EKVX NSCLC,2140 nM
same,GI50,HT29 colon,10.8 nM
same,TGI,HT29 colon,1750 nM
same,GI50,SF-539 CNS,< 10 nM
same,TGI,SF-539 CNS,1020 nM
same,GI50,SR leukemia,< 10 nM
same,GI50,UACC-62 melanoma,< 10 nM
same,TGI,UACC-62 melanoma,19.4 nM
same,GI50,MCF7 breast,< 10 nM
same,TGI,MCF7 breast,193 nM
same,GI50,SW-620 colon,< 10 nM
same,TGI,SW-620 colon,2210 nM
same,GI50,SF-268 CNS,118 nM
same,TGI,SF-268 CNS,1350 nM
same,GI50,TK-10 renal,179 nM
same,TGI,TK-10 renal,11000 nM
same,GI50,NCI-H522 lung,< 10 nM
same,TGI,NCI-H522 lung,214 nM
same,GI50,786-0 renal,58.1 nM
same,TGI,786-0 renal,1920 nM
same,GI50,SK-MEL-2 melanoma,< 10 nM
same,TGI,SK-MEL-2 melanoma,207 nM
same,GI50,HOP-62 NSCLC,< 10 nM
same,TGI,HOP-62 NSCLC,113 nM
same,GI50,MDA-MB-435 melanoma,< 10 nM
same,TGI,MDA-MB-435 melanoma,1670 nM
same,GI50,SF-295 CNS,57.1 nM
same,TGI,SF-295 CNS,2290 nM
same,GI50,SK-MEL-5 melanoma,< 10 nM
same,TGI,SK-MEL-5 melanoma,827 nM
same,GI50,M14 melanoma,18.8 nM
same,TGI,M14 melanoma,1500 nM
same,GI50,KM12 colon,< 10 nM
same,TGI,KM12 colon,1060 nM
same,GI50,OVCAR-4 ovarian,40.6 nM
same,TGI,OVCAR-4 ovarian,3790 nM
same,GI50,SK-MEL-28 melanoma,< 10 nM
same,TGI,SK-MEL-28 melanoma,1260 nM
same,GI50,IGROV1 ovarian,< 10 nM
same,TGI,IGROV1 ovarian,449 nM
same,GI50,CAKI-1 renal,52.2 nM
same,TGI,CAKI-1 renal,2790 nM
same,GI50,RXF 393 renal,144 nM
same,TGI,RXF 393 renal,960 nM
same,GI50,UACC-257 melanoma,19 nM
same,TGI,UACC-257 melanoma,632 nM
same,GI50,NCI-H322M lung,174 nM
same,TGI,NCI-H322M lung,1580 nM
same,GI50,K-562 leukemia,< 10 nM
same,TGI,K-562 leukemia,3390 nM
same,GI50,HL-60(TB) leukemia,< 10 nM
same,TGI,HL-60(TB) leukemia,117 nM
same,GI50,PC-3 prostate,< 10 nM
same,TGI,PC-3 prostate,642 nM
same,GI50,MDA-MB-231 breast,102 nM
same,TGI,MDA-MB-231 breast,1240 nM
same,GI50,NCI-H226 lung,88.1 nM
same,TGI,NCI-H226 lung,1590 nM
same,GI50,MDA-MB-468 breast,< 10 nM
same,TGI,MDA-MB-468 breast,431 nM
same,GI50,UO-31 renal,1610 nM
same,TGI,UO-31 renal,14400 nM
same,GI50,SNB-75 CNS,274 nM
same,TGI,SNB-75 CNS,1410 nM
same,GI50,HCT-15 colon,449 nM
same,TGI,HCT-15 colon,13600 nM
same,GI50,T-47D breast,576 nM
same,TGI,T-47D breast,3840 nM
same,GI50,SNB-19 CNS,382 nM
same,TGI,SNB-19 CNS,12500 nM
same,GI50,A549 NSCLC,39.6 nM
same,TGI,A549 NSCLC,61700 nM
same,GI50,OVCAR-3 ovarian,< 10 nM
same,TGI,OVCAR-3 ovarian,152 nM
same,GI50,SN12C renal,< 10 nM
same,TGI,SN12C renal,1150 nM
same,GI50,MALME-3M melanoma,< 10 nM
same,TGI,MALME-3M melanoma,1490 nM
same,GI50,DU-145 prostate,< 10 nM
same,TGI,DU-145 prostate,10200 nM
same,GI50,BT-549 breast,< 10 nM
same,TGI,BT-549 breast,109 nM
same,GI50,A498 renal,30.1 nM
same,TGI,A498 renal,2380 nM
same,GI50,OVCAR-8 ovarian,33.3 nM
same,TGI,OVCAR-8 ovarian,1470 nM
same,GI50,NCI-H23 lung,< 10 nM
same,TGI,NCI-H23 lung,214 nM
same,GI50,OVCAR-5 ovarian,61.3 nM
same,TGI,OVCAR-5 ovarian,11200 nM
same,GI50,HS 578T breast,93.6 nM
same,TGI,HS 578T breast,763 nM
same,GI50,MOLT-4 leukemia,< 10 nM
same,TGI,MOLT-4 leukemia,122 nM
same,GI50,HOP-92 NSCLC,131 nM
same,TGI,HOP-92 NSCLC,911 nM
same,GI50,SK-OV-3 ovarian,178 nM
same,TGI,SK-OV-3 ovarian,8090 nM
same,GI50,U251 glioblastoma,< 10 nM
same,TGI,U251 glioblastoma,2660 nM
CNC(=O)c1cc2c(Oc3ccc(NC(=O)C4(C(=O)Nc5ccc(F)cc5)CC4)cc3)ccnc2cc1OC,GI50,ACHN renal,1670 nM
same,TGI,ACHN renal,5700 nM
same,GI50,COLO 205 colon,3380 nM
same,TGI,COLO 205 colon,14400 nM
same,GI50,EKVX NSCLC,1680 nM
same,TGI,EKVX NSCLC,5230 nM
same,GI50,HT29 colon,2960 nM
same,TGI,HT29 colon,13300 nM
same,GI50,SF-539 CNS,180 nM
same,TGI,SF-539 CNS,3230 nM
same,GI50,SR leukemia,1640 nM
same,TGI,SR leukemia,3080 nM
same,GI50,UACC-62 melanoma,1860 nM
same,TGI,UACC-62 melanoma,5520 nM
same,GI50,MCF7 breast,1720 nM
same,TGI,MCF7 breast,10400 nM
same,GI50,SW-620 colon,2720 nM
same,TGI,SW-620 colon,10400 nM
same,GI50,SF-268 CNS,3720 nM
same,TGI,SF-268 CNS,> 100000 nM
same,GI50,TK-10 renal,2850 nM
same,TGI,TK-10 renal,14100 nM
same,GI50,HCT-116 colon,3170 nM
same,TGI,HCT-116 colon,19900 nM
same,GI50,NCI-H522 lung,1960 nM
same,TGI,NCI-H522 lung,5530 nM
same,GI50,786-0 renal,3090 nM
same,TGI,786-0 renal,12500 nM
same,GI50,SK-MEL-2 melanoma,2190 nM
same,TGI,SK-MEL-2 melanoma,5670 nM
same,GI50,HOP-62 NSCLC,3470 nM
same,TGI,HOP-62 NSCLC,24300 nM
same,GI50,MDA-MB-435 melanoma,1630 nM
same,TGI,MDA-MB-435 melanoma,3470 nM
same,GI50,SF-295 CNS,471 nM
same,TGI,SF-295 CNS,8180 nM
same,GI50,SK-MEL-5 melanoma,1430 nM
same,TGI,SK-MEL-5 melanoma,4450 nM
same,GI50,M14 melanoma,3360 nM
same,TGI,M14 melanoma,31500 nM
same,GI50,KM12 colon,4090 nM
same,TGI,KM12 colon,74600 nM
same,GI50,OVCAR-4 ovarian,3870 nM
same,TGI,OVCAR-4 ovarian,> 100000 nM
same,GI50,SK-MEL-28 melanoma,2900 nM
same,TGI,SK-MEL-28 melanoma,> 100000 nM
same,GI50,IGROV1 ovarian,1480 nM
same,TGI,IGROV1 ovarian,3410 nM
same,GI50,CAKI-1 renal,1610 nM
same,TGI,CAKI-1 renal,3420 nM
same,GI50,UACC-257 melanoma,2350 nM
same,TGI,UACC-257 melanoma,20500 nM
same,GI50,NCI-H322M lung,2640 nM
same,TGI,NCI-H322M lung,8790 nM
same,GI50,K-562 leukemia,261 nM
same,TGI,K-562 leukemia,1290 nM
same,GI50,HL-60(TB) leukemia,2130 nM
same,TGI,HL-60(TB) leukemia,4050 nM
same,GI50,PC-3 prostate,3940 nM
same,TGI,PC-3 prostate,> 100000 nM
same,GI50,MDA-MB-231 breast,3330 nM
same,TGI,MDA-MB-231 breast,> 100000 nM
same,GI50,NCI-H226 lung,1630 nM
same,TGI,NCI-H226 lung,6070 nM
same,GI50,MDA-MB-468 breast,1570 nM
same,TGI,MDA-MB-468 breast,4590 nM
same,GI50,UO-31 renal,1990 nM
same,TGI,UO-31 renal,4900 nM
same,GI50,SNB-75 CNS,1080 nM
same,TGI,SNB-75 CNS,3010 nM
same,GI50,HCT-15 colon,2960 nM
same,TGI,HCT-15 colon,12300 nM
same,GI50,T-47D breast,1810 nM
same,TGI,T-47D breast,9370 nM
same,GI50,SNB-19 CNS,16200 nM
same,TGI,SNB-19 CNS,> 100000 nM
same,GI50,A549 NSCLC,3100 nM
same,TGI,A549 NSCLC,11200 nM
same,GI50,OVCAR-3 ovarian,2560 nM
same,TGI,OVCAR-3 ovarian,12400 nM
same,GI50,SN12C renal,507 nM
same,TGI,SN12C renal,8210 nM
same,GI50,MALME-3M melanoma,3500 nM
same,TGI,MALME-3M melanoma,17100 nM
same,GI50,DU-145 prostate,4120 nM
same,TGI,DU-145 prostate,> 100000 nM
same,GI50,BT-549 breast,2490 nM
same,TGI,BT-549 breast,6880 nM
same,GI50,A498 renal,2870 nM
same,TGI,A498 renal,9790 nM
same,GI50,OVCAR-8 ovarian,3590 nM
same,TGI,OVCAR-8 ovarian,> 100000 nM
same,GI50,NCI-H23 lung,546 nM
same,TGI,NCI-H23 lung,4730 nM
same,GI50,OVCAR-5 ovarian,3350 nM
same,TGI,OVCAR-5 ovarian,> 100000 nM
same,GI50,HS 578T breast,601 nM
same,TGI,HS 578T breast,2730 nM
same,GI50,MOLT-4 leukemia,1400 nM
same,TGI,MOLT-4 leukemia,2720 nM
same,GI50,HOP-92 NSCLC,1370 nM
same,TGI,HOP-92 NSCLC,5990 nM
same,GI50,SK-OV-3 ovarian,1830 nM
same,TGI,SK-OV-3 ovarian,5630 nM
same,GI50,U251 glioblastoma,4560 nM
same,TGI,U251 glioblastoma,> 100000 nM

# Reference: PubChem BioAssay (NCI)
